Values of other authors, collected in patent publication US5354868A, “Process for the preparation of (+)-hydantocidin and analogs thereof” (American Cyanamid Company, priority 1993, dated 1994).

Assays:
[1] = test system: annual and perennial weeds; conditions: compared with glyphosphate and bialaphos
[2] = test system: mammals; conditions: in vivo

For `O=C1NC(=O)[C@@]2(N1)O[C@H](CO)[C@@H](O)[C@H]2O` [(+)-Hydantocidin, D-ribose-1-spiro-5'-N^1' -β-hydantoin], the herbicidal activity [1] is listed as “herbicidal activity at levels comparable to commercial standards such as glyphosphate and bialaphos” and the toxicity to mammals [2] is listed as “non-toxic to mammals”.
